Drawing on patent publication US9340543B2, “Helquat derivatives, preparation thereof, and use thereof as medicaments” (USTAV ORGANICKE CHEMIE A BIOCHEMIE AKADEMIE VED CR, V.V.I., priority 2013, dated 2016), this text covers IC50 for three molecules.

For one experiment, the system named is HL-60. As to the kind of experiment: CellTiter-Glo luminescent cell viability assay (ATP quantification), HL-60. The settings on record: acute promyelocytic leukemia cells, 72 h treatment, viable cells by ATP luminescence. In kind it is cell-based. The procedure: (§1) Influence of the test compounds on viability (proliferation) of cell lines used was investigated in concentration range 0-100 μmol·l^−1.
Suspension cell line HL-60 is a permanent in vitro culture of acute promyelocytic leukemia. HL-60 cell line was cultivated in RPMI 1640 medium (Sigma-Aldrich, see above) with addition of 2 mmol·l^−1 glutamine (Invitrogen, see above), 10% fetal bovine serum (FBS, Sigma-Aldrich, see above), 100 IU/ml peniciline, 100 μg/ml streptomycine (Sigma-Aldrich, see above). Passaging was performed 2-3× a week. Population doubling time of HL-60 cell line was 23 h under the cultivation conditions used.
(§2) In order to test the sensitivity of the cell lines towards the studied helquats, cytotoxity test for cell viability assessment based on ATP quantification in cell lysates was used (CellTiter-Glo® Luminescent Cell Viability Assay, Promega, cat. no. G7571). In this test, ATP in cell lysates is detected using luciferase reaction. Luminescence intensity correlates with the ATP level and thus with quantity of metabolically active (viable) cells. IC50 value serves as the output, that is the concentration of the test compound which leads to 50% reduction in number of viable cells as compared to control, untreated population. To this end, IC50 value reflects efficiency of the test compound with regard to the given cell line.
(§3) Cells in the exponential growth phase were seeded into a 96-well microtiter plate were plated at 3000 cells per well. Each well contained 90 μl of cell suspension. The next day, 10 μl of 10× concentrated test compound solutions were added. The effect of helquats was investigated in concentration range 1 to 100 μmol·l^−1 (e.g. 1; 2.5; 5; 7.5; 10; 15; 25; 50 and 100 μmol·l^−1). Apart from the section containing the concentration series of the test compound, each well contained 2 control columns, the first with pure medium (so called blank) and the second with cells in medium without the test compounds (control). Into wells containing controls and blanks, volume of solvent (water) equal to the volume of added compound solutions was added. After 72 h of incubation with the test compounds viability was determined according to the manufacturer's instructions. In short: microtiter well plate was left 30 min to reach the room temperature after it has been removed from the incubator. Then, into each well, 100 μl of the prepared detection agent was added. Next, the well plate was shaken for 2 min to complete the full lysis. Next, after the well had been left in the dark for 15 min, the luminescence was measured in each well using luminometer (Tecan Genios, Austria).
(§4) IC50 value represents concentration of the test compound, which leads to 50% reduction of viable cells (inhibition of cell growth) after 72 h of the treatment. Each helquat concentration was tested in triplicates in a IC50 quantification and at least 3 independent IC50 quantification experiments were performed. IC50 values over 100 μmol·l^−1 were obtained by extrapolation of data measured in concentration range 0-100 μmol·l^−1 for the given helquat.
(Cellular ATP, detected with luciferase, serves as a proxy for viable cell number.)

For another experiment, the system named is LoVo. As to the kind of experiment: CellTiter-Glo luminescent cell viability assay (ATP quantification), LoVo. It counts as cell-based. The conditions noted are these: colorectal carcinoma cells, 72 h treatment, viable cells by ATP luminescence, class symbols. The procedure:
as §1
Adherent cell line LoVo is a permanent in vitro culture derived from tissue of a patient with colorectal carcinoma. LoVo cell line was cultivated in DMEM medium (Sigma-Aldrich, cat. no. D8437) with addition of 2 mmol·l^−1 glutamine (Invitrogen, see above), 10% fetal bovine serum (FBS, Sigma-Aldrich, see above), 100 IU/ml peniciline, 100 μg/ml streptomycine (Sigma-Aldrich, see above). Passaging was performed twice a week. After washing of cells with sterile PBS, the cells were released by 0.25% trypsin/EDTA (Sigma-Aldrich, see above) at 37° C. for 2 minutes. The trypsin was inactivated by addition of 2 volumes of complete medium, cells were then centrifuged (250×g, 5 min), resuspended, and transferred in the amount needed into a new cultivation bottle with fresh medium. Population doubling time of LoVo cell line was 39 h under the cultivation conditions used.
as §2, §3, §4

For another experiment, the system named is HUVEC. As to the kind of experiment: CellTiter-Glo luminescent cell viability assay (ATP quantification), HUVEC normal cells. It counts as cell-based, human. The conditions noted are these: 72 h treatment. The procedure:
as §1
Normal human endothelial cells from umbilical vein are adherent cells cultivated in plastic Petri dishes coated with collagen I. Into the cultivation medium (E-STIM™; BD Biosciences, cat. co. 355054) already containing 2% FBS (fetal bovine serum), hydrocortisone and heparin the following two further ingredients were added: epidermal growth factor (EGF, 5 μg) and mixture of factors facilitating growth of endothelial cells (ECGS, 100 mg). […] The cells were passaged after reaching 90% confluency by dissociation using 0.25% solution of trypsin/EDTA (1 ml; 3 min; 37° C.). After that 5 ml of complete cultivation medium E-STIM™ was added and the cells were centrifuged (180×g, 7 min), the pellet was resuspended, and transferred in the amount needed into a new Petri dish with fresh medium. The cells were used in experiments between the 3rd and the 8th passage after defreezing. Population doubling time of HUVEC cell line was 38 h under the cultivation conditions used.
as §2, §3, §4

What is called IC50 is the concentration that gives 50% inhibition. As to `Cc1c(C)c2c(c3c1CC[n+]1ccc(/C=C/c4ccc(N(C)C)cc4)cc1-3)-c1c3ccccc3cc[n+]1CC2` [(M)-1, (M)-(E)-13-(4-(dimethylamino)styryl)-6,7-dimethyl-4,5,8,9-tetrahydroiso-quinolino[1,2-a]pyrido[1,2-k][2,9]phenanthroline-3,10-diium trifluoromethanesulfonate], the concentration for half-maximal inhibition (IC50) in the experiment on HL-60 was below 10 µM; in the experiment on LoVo, 11 to 50 µM; in the experiment with HUVEC (normal human endothelial cells, numeric bound, values over 100 obtained by extrapolation of data measured at 0-100 μmol·l−1) it was above 150 µM.

Take `COc1ccc2cc(/C=C/c3cc[n+]4c(c3)-c3c(c(C)c(C)c5c3-c3c6ccccc6cc[n+]3CC5)CC4)ccc2c1` [(M)-7, (M)-(E)-13-(2-(6-methoxynaphthalene-2-yl)vinyl)-6,7-dimethyl-4,5,8,9-tetrahydroisoquinolino[1,2-a]pyrido[1,2-k][2,9]phenanthroline-3,10-diium trifluoromethanesulfonate]: the IC50 is below 10 µM in the experiment on HL-60; 11 to 50 µM with LoVo; 51 to 150 µM in the experiment with HUVEC (normal human endothelial cells from umbilical vein, viable cells by ATP luminescence, class symbols).

`COc1ccc(/C=C/c2cc[n+]3c(c2)-c2c(c(C)c(C)c4c2-c2c5ccccc5cc[n+]2CC4)CC3)cc1` [(M)-6, (M)-(E)-13-(4-methoxystyryl)-6,7-dimethyl-4,5,8,9-tetrahydroisoquinolino[1,2-a]pyrido[1,2-k][2,9]phenanthroline-3,10-diium trifluoromethanesulfonate]: the IC50 with HL-60 (Homo sapiens, HL-60) is 11 to 50 µM; in the experiment on LoVo (Homo sapiens, LoVo) it was 11 to 50 µM; in the experiment with HUVEC (HUVEC, normal human endothelial cells, numeric bound, values over 100 obtained by extrapolation of data measured at 0-100 μmol·l−1), above 150 µM.
